Reference: ChEMBL document CHEMBL3351731, “Synthesis and cytotoxicity evaluation of 4-amino-4-dehydroxylarctigenin derivatives in glucose-starved A549 tumor cells” (Bioorg Med Chem Lett, 2015)

How the values were obtained:
A549 [1] = experiment: Cytotoxicity against human A549 cells after 4 days under glucose-starved conditions by MTT assay; type: functional, cell-based; details: A549, 96 h
A549 [2] = experiment: Cytotoxicity against human A549 cells after 4 days under normal conditions by MTT assay; type: cell-based; details: A549, 96 h

Compound	IC50 (A549 [1]) [µM]	IC50 (A549 [2]) [µM]
COc1cc(C[C@H]2C(=O)OC[C@@H]2Cc2ccc(OC)c(OC)c2)ccc1NC(=O)c1ccccc1	> 50	> 50
CCC(=O)Nc1ccc(C[C@H]2C(=O)OC[C@@H]2Cc2ccc(OC)c(OC)c2)cc1OC	> 50	> 50
COc1ccc(Nc2ccc(C[C@H]3C(=O)OC[C@@H]3Cc3ccc(OC)c(OC)c3)cc2OC)cc1	> 50	> 50
COc1cc(C[C@H]2C(=O)OC[C@@H]2Cc2ccc(OC)c(OC)c2)ccc1O [ARCTIGENIN]	6.57	> 50
COc1cc(C[C@H]2C(=O)OC[C@@H]2Cc2ccc(OC)c(OC)c2)ccc1NC(C)=O	> 50	> 50
COc1cc(C[C@H]2C(=O)OC[C@@H]2Cc2ccc(OC)c(OC)c2)ccc1NCc1ccccc1	> 50	> 50
COc1cccc(C[C@H]2C(=O)OC[C@@H]2Cc2ccc(OC)c(OC)c2)c1	> 50	> 50
COc1cc(C[C@H]2C(=O)OC[C@@H]2Cc2ccc(OC)c(OC)c2)ccc1NC(=O)Cc1ccccc1	> 50	> 50
COc1cc(C[C@H]2C(=O)OC[C@@H]2Cc2ccc(OC)c(OC)c2)ccc1Nc1ccccc1	> 50	> 50
COc1cc(C[C@H]2C(=O)OC[C@@H]2Cc2ccc(OC)c(OC)c2)ccc1Nc1ccc([N+](=O)[O-])cc1	22.1	> 50
COc1cc(C[C@H]2C(=O)OC[C@@H]2Cc2ccc(OC)c(OC)c2)ccc1Nc1ccc(F)cc1	> 50	> 50
COc1cc(C[C@H]2C(=O)OC[C@@H]2Cc2ccc(OC)c(OC)c2)ccc1N	2.85	> 50
